In patent US4923861A, “6-(2-(2-(Substituted amino)-3-quinolinyl) ethenyl and ethyl) tetrahydro-4-hydroxypyran-2-one inhibitors of cholesterol biosynthesis” (Warner-Lambert Company, priority 1989, dated 1990):
Where a name gives a salt, the structure may show the parent alone.

Columns and labels:
[1] = system: cholesterol synthesis (plasma [14C]cholesterol); test: AICS (Acute Inhibition of Cholesterol Synthesis) screen; format: in vivo, male Sprague-Dawley rats; conditions: cholestyramine-fed male rats, single oral gavage dose (dose not given), [1-14C]acetate i.p. one hour after dosing, blood after 50 minutes
Protocol: Additionally, the ability of compounds of the present invention to inhibit the biosynthesis of cholesterol was also measured by a method (designated AICS (Acute Inhibition of Cholesterol Synthesis) screen) which utilizes the procedure described by A. W. Alberts, et al, Proceedings of the National Academy of Sciences, Volume 77, pages 3957-3961 (1980).
In this method male Sprague-Dawley rats (200 g body weight) previously fed 5% cholestyramine for three days were randomly divided into groups (N=5/group) and given a single dose of vehicle (controls) or compound by an oral gavage at the indicated doses. One hour after drug dosing, all rats were injected intraperitoneally with sodium[1-^14 C]acetate (18.75 μCi/rat in 0.2 ml saline). After 50 minutes, blood samples were taken, plasma obtained by centrifugation, and plasma [^14 C]cholesterol measured after saponification and extraction.

[2] = system: sterol synthesis (rat liver homogenate); test: CSI (Cholesterol Synthesis Inhibition) screen; format: biochemical; conditions: 14C-acetate incorporation into nonsaponifiable lipid, one-hour period
Protocol: The ability of compounds of the present invention to inhibit the biosynthesis of cholesterol was measured by a method (designated CSI (Cholesterol Synthesis Inhibition) screen) which utilizes the procedure described by R. E. Dugan et al, Archives of Biochemistry and Biophysics, Volume 152, pages 21-27 (1972). In this method, the level of HMG-CoA enzyme activity in standard laboratory rats is increased by feeding the rats a chow diet containing 5% cholestyramine for four days, after which the rats are sacrificed.
The rat livers are homogenized, and the incorporation of ^14 C-acetate into nonsaponifiable lipid by the rat liver homogenate is measured. The micromolar concentration of compound required for 50% inhibition of sterol synthesis over a one-hour period is measured, and expressed as an IC50 value.

IC50 [2] | Structure (SMILES) | AICS % Inhibition [1]
 | CN(C)c1nc2ccccc2c(-c2ccc(F)cc2)c1/C=C/[C@@H]1C[C@@H](O)CC(=O)O1 (relative stereo) [1 (lactone), [4α,6β(E)]-6-[2-[2-(Dimethylamino)-4-(4-fluorophenyl)-3-quinolinyl]ethenyl]tetrahydro-4-hydroxy-2H-pyran-2-one] | 52%
0.047 µM | CN(C)c1nc2ccccc2c(-c2ccc(F)cc2)c1/C=C/[C@@H](O)C[C@@H](O)CC(=O)O (relative stereo) [[R*,S*-(E)]-7-[2-dimethylamino)-4-(4-fluorophenyl)-3-quinolinyl]-3,5-dihydroxy-6-heptenoic acid, monosodium salt] | 49%
